# Calls of active or inactive are those of the source.
# What was measured:
# Cytochrome P450 2C19 = Cytochrome P450 2C19 (Homo sapiens, UniProt P33261); experiment: Cytochrome panel assay with activity outcomes. Panel member name: p450-cyp2c19 Compounds with AC50 equal or less than 10 uM are considered active; format: functional
# [1] = Luminescence Cell-Based Dose Retest to Confirm Inhibitors of Cancer Stem Cells. [Related pubchem assays (depositor defined):AID2717, AID2721]; format: functional; settings: Homo sapiens
# [2] = target: T1, Heat shock factor protein 1 (Mus musculus, UniProt P38532); experiment: enhancement of HSF1-driven luciferase signal – cell-based, NIH3T3, luminescence, dose retest, confirmation (AID 435004); format: functional;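 note: stress induced by proteasome inhibitor MG132 added 30 min after compound; luciferase reporter driven by HSF1 response element in NIH3T3 cells; actives raise luminescence as potentiators of the MG132 stress response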
# T1 sequence (P38532 whole entry): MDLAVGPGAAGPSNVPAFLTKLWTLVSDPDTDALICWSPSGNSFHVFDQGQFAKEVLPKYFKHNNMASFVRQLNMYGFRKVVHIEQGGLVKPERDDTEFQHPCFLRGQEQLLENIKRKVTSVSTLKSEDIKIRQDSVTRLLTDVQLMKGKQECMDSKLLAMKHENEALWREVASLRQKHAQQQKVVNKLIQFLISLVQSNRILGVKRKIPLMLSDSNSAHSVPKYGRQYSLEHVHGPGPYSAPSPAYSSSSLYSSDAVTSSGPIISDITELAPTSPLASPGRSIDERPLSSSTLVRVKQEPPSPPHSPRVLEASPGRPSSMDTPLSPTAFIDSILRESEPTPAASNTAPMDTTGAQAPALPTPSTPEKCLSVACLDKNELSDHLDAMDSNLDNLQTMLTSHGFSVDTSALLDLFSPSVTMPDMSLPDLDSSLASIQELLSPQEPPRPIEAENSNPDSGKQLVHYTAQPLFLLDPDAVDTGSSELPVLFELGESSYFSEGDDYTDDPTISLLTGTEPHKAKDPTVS
# Cytochrome P450 3A4 = Cytochrome P450 3A4 (Homo sapiens, UniProt P08684);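 note: CYP3A4 tested as one member of a cytochrome P450 panel screen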
# Cytochrome P450 2C9 = Cytochrome P450 2C9 (Homo sapiens, UniProt P11712)
# [3] = viability of uninfected HEp-2 cells – cell-based, HTS, cytotoxicity control for RSV inhibitor project, dose response (AID 2410); format: functional; settings: human respiratory syncytial virus
# Streptococcus = experiment: GAS UMAA2166 growth inhibition – luminescence, BacTiterGlo, counter-screen for streptokinase expression inhibitor project, dose response (AID 1915); format: functional, organism-based;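 note: potency for reduction of bacterial viability or growth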
# [4] = tested on: Streptococcus sp. 'group A'; experiment: Streptococcus pyogenes SK(-)GAS viability under kanamycin – luminescence, BacTiterGlo, confirmation, counter-screen for streptokinase expression inhibitor project, dose response (AID 1900); format: functional, organism-based
# Streptokinase A = target: T2, Streptokinase A (Streptococcus pyogenes serotype M1, UniProt P10520); experiment: viability-normalized secreted streptokinase activity reduction – plasminogen activation absorbance, OD405, dose response (AID 1914); format: functional, Streptococcus pyogenes M1 GAS;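 note: secreted streptokinase activity via plasminogen activation per viability signal from cell pellet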
# T2 sequence (P10520 whole entry): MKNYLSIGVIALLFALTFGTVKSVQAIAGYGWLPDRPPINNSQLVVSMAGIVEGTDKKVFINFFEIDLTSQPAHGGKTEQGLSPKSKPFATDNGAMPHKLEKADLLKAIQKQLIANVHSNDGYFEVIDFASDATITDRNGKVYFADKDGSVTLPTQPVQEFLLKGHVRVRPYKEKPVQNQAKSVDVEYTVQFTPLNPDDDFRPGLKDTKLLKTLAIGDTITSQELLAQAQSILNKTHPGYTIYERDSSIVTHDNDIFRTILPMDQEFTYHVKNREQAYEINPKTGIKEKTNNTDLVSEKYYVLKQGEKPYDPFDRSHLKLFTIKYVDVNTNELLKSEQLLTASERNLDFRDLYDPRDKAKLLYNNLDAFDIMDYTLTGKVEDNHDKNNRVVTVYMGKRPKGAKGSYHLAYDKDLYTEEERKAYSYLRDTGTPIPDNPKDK
# Cytochrome P450 1A2 = target: T3, Cytochrome P450 1A2 (Homo sapiens, UniProt P05177);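 note: PubChem cytochrome P450 panel assay, CYP1A2 panel member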
# T3 sequence (P05177 whole entry): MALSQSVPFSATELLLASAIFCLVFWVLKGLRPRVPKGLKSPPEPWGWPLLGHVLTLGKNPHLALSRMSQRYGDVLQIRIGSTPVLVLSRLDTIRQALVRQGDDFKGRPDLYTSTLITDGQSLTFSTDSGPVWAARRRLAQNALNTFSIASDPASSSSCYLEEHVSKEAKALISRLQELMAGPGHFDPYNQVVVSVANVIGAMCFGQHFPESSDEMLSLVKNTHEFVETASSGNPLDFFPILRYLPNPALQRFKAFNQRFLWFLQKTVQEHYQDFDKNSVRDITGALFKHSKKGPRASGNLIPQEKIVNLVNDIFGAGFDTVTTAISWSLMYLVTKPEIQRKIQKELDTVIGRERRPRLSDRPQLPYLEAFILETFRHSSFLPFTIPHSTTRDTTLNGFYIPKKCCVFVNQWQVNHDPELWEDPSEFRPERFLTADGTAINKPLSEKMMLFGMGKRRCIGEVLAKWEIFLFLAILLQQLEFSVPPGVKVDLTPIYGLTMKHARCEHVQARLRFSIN
# H4 = experiment: Luminescence Cell-Based Dose Response HTS to Identify Activators of 5'UTR Stem-Loop Driven Prion Protein mRNA Translation in H4 Neuroglioblastoma Cells. [Related pubchem assays: 1829 (Project Summary), 1814 (Primary HTS)]; format: functional; settings: Homo sapiens
# [5] = Luminescence Cell-Based Dose Confirmation HTS to Identify Activators of 5'UTR Stem-Loop Driven Alpha-Synuclein mRNA Translation in H4 Neuroglioblastoma Cells. [Related pubchem assays: 1829 (Project Summary), 1814 (Primary HTS)]; format: functional
# [6] = Luminescence Cell-Based Dose Response HTS to Identify Activators of Luciferase Translation or Activity in H4 […] Cells. [Related pubchem assays: 1829 (Project Summary), 1814 (Primary HTS)]; format: functional
# [7] = NIH3T3 cell viability loss – ATP luminescence, mouse fibroblasts, counter-screen, dose response (AID 2010); format: functional, cell-based;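 note: cells exposed to compound for about 90 hours before reading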
# [8] = Trypanosoma cruzi growth suppression in host cells – NIH3T3 host cells, beta-gal luminescence, confirmation (AID 2044); format: functional, cell-based;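 note: intracellular parasites grown in NIH/3T3 mouse fibroblasts as host cells; luminescent beta-galactosidase reporter signal from transgenic T. cruzi replicating inside host cells; inhibitors lower the luminescence signal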
# Cytochrome P450 2C9, sequence (P11712 whole entry): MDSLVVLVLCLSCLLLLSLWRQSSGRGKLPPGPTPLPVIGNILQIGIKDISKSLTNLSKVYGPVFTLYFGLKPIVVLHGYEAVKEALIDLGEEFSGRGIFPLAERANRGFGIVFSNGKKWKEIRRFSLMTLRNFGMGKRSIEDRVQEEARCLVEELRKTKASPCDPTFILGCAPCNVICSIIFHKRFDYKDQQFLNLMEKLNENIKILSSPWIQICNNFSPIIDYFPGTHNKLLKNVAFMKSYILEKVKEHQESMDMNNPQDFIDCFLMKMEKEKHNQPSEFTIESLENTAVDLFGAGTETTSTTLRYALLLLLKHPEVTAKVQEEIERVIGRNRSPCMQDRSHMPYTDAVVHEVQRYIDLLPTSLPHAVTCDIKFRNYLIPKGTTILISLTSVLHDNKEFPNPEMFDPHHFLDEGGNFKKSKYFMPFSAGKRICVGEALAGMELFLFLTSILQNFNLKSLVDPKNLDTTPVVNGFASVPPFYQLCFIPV
# Cytochrome P450 3A4, sequence (P08684 whole entry): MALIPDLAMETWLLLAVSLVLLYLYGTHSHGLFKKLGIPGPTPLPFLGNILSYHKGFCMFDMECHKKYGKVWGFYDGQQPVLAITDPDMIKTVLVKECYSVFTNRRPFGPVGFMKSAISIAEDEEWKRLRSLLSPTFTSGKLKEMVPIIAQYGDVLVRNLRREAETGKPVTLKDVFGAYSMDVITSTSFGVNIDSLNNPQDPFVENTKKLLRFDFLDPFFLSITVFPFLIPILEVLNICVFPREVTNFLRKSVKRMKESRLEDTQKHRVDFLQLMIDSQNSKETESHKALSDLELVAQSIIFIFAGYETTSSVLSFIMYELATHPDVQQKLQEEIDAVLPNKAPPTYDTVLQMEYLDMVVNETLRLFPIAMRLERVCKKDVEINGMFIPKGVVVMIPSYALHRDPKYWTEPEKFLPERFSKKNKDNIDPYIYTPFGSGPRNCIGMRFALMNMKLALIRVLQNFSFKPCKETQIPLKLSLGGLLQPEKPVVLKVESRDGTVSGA
# Cytochrome P450 2C19, sequence (P33261 whole entry): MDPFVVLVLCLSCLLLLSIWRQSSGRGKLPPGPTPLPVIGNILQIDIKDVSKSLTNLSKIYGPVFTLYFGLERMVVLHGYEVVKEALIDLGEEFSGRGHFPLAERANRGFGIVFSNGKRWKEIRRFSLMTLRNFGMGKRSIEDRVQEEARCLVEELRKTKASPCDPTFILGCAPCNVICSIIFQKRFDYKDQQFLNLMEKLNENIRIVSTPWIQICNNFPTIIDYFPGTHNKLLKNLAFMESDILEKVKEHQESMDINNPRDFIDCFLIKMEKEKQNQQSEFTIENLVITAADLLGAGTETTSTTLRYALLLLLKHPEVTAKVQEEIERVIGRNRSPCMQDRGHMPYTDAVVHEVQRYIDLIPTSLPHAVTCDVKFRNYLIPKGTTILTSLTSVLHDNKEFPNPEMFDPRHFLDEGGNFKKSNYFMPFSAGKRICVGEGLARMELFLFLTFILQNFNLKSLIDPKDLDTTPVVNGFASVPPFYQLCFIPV
compound,measurement,setting,value
C[C@]1(C(=O)O)[C@@H]2CC[C@@H](O2)[C@@]1(C)C(=O)O,AC50,Cytochrome P450 2C19,inconclusive
NC(=O)CC(NC(=O)Cc1cccc2ccccc12)c1ccc(NCc2ccc(F)c(F)c2)c([N+](=O)[O-])c1 (stereo unspecified),AC50,[1],11.2 µM (active)
O=C(CCc1ccc(S(=O)(=O)N2CCOCC2)cc1)N1CCN(Cc2ccc3c(c2)OCO3)CC1,EC50,[2],> 260 µM (inactive)
COc1ccc2[nH]c3c(NCCCN4CCCC4=O)ncnc3c2c1,AC50,Cytochrome P450 2C19; read-out: AC50,39.8 µM (inconclusive)
same,AC50,Cytochrome P450 3A4,17.8 µM (inconclusive)
same,AC50,Cytochrome P450 2C9,3.98 µM (inconclusive)
CC(C)NC(=O)c1c(O)c2cccc3c2n(c1=O)CCC3,CC50,[3],17.3 µM (active)
O=C(CCC1N=C2c3ccccc3N=C(SCc3ccc(Cl)cc3)N2C1=O)NCc1ccco1 (stereo unspecified),CC50,[3],25.4 µM (active)
COc1ccc(NC(=O)c2[nH]cnc2C(=O)N[C@@H](CC(C)C)C(=O)OC(C)(C)C)cc1,EC50,Streptococcus,11.6 µM (active)
same,EC50,[4],4.08 µM (active)
same,EC50,Streptokinase A,> 150 µM (not active)
same,AC50,[1],7.16 µM (active)
CCCc1cc(O)nc(SCC(=O)c2cc(C)n(C3CC3)c2C)n1,CC50,[3],43.1 µM (active)
Clc1ccc2c(c1)C1OCCC1C(c1ccco1)N2 (stereo unspecified),CC50,[3],33.4 µM (active)
O=C(CCN1C(=O)C2C3C=CC(C3)C2C1=O)N1CCN(c2cccc(Cl)c2)CC1 (stereo unspecified),AC50,Cytochrome P450 2C19; read-out: AC50,25.1 µM (inconclusive)
same,AC50,Cytochrome P450 2C9,11.2 µM (inconclusive)
N#Cc1cccc(Nc2c3c(nc4ccccc24)CCCC3)c1,CC50,[3],15.9 µM (active)
CSc1nc2ccccc2n1CC(=O)Nc1cc(C(F)(F)F)ccc1N1CCOCC1,CC50,[3],42.4 µM (active)
Cc1cccc(C(=O)NNC(=O)C(=O)NC(C)(C)C)c1,AC50,Cytochrome P450 2C19; read-out: AC50,11.2 µM (inconclusive)
CCOC(=O)c1nn(-c2ccc(F)cc2)c(-c2ccccc2)c1C(=O)c1ccccc1,AC50,[1],5.46 µM (active)
O=C(CSc1ccc(Cl)cc1)Nc1ccc(N2CCN(c3ccccc3)CC2)c(F)c1,AC50,Cytochrome P450 2C19; read-out: AC50,3.55 µM (inconclusive)
COc1ccc(S(=O)(=O)Cc2ccc(C(=O)NCCCN(C)c3ccccc3)o2)cc1,EC50,[2],> 260 µM (inactive)
COc1cc(/C=C/C(=O)c2c(O)ccc3c(C)cc(=O)oc23)ccc1O,EC50,[2],15 µM (active)
Oc1ccc(Nc2nc(-c3ccccc3O)nc3ccccc23)cc1,AC50,[1],2.71 µM (active)
O=C(Nc1cc(Cl)ccc1O)C1CC(c2ccccc2Cl)=NO1 (stereo unspecified),CC50,[3],> 50 µM (active)
O=c1c(-c2ccc(F)cc2)nc2cnc(N3CCOCC3)nc2n1CCc1ccccc1,AC50,Cytochrome P450 2C19; read-out: AC50,39.8 µM (inconclusive)
same,AC50,Cytochrome P450 1A2,25.1 µM (inconclusive)
CCOc1ccc(OCc2ccc(C(=O)N3CCc4ccccc4C3)o2)cc1,AC50,Cytochrome P450 3A4,39.8 µM (inconclusive)
same,CC50,[3],23.4 µM (active)
COC(=O)[C@@]1(Cc2ccccc2)[C@H]2c3cc(C(=O)N(C)C)n(Cc4ccc(S(C)(=O)=O)cc4)c3C[C@H]2CN1C(=O)c1ccccc1,AC50,Cytochrome P450 2C19; read-out: AC50,39.8 µM (inconclusive)
same,AC50,Cytochrome P450 1A2,31.6 µM (inconclusive)
same,AC50,Cytochrome P450 2C9,25.1 µM (inconclusive)
CCN(CC)CCN1C(=O)c2oc3ccccc3c(=O)c2C1c1ccc(F)cc1 (stereo unspecified),EC50,H4,22.4 µM (active)
same,EC50,[5],> 120 µM (not active)
same,EC50,[6],14.1 µM (active)
COc1ccccc1NC(=O)CC(=O)CSc1nnc(-c2ccc(C)cc2)n1C,CC50,[3],17.7 µM (active)
COC(=O)c1ccc(CSc2nncn2C)cc1,EC50,H4,11.3 µM (active)
same,EC50,[5],9.45 µM (active)
same,EC50,[6],54.3 µM (active)
Cc1ccc(OCCN2CCN(c3nc(NCc4ccco4)c4ccccc4n3)CC2)cc1,EC50,[7],6.18 µM (active)
same,AC50,[1],4.7 µM (active)
same,EC50,[8],1.35 µM (active)
O=c1cc(-c2ccccc2Cl)oc2c(NS(=O)(=O)c3cccs3)ccc(O)c12,CC50,[3],22 µM (active)
CCC1(C)Cc2c(sc3nc(SC)n(Cc4ccccc4)c(=O)c23)CO1 (stereo unspecified),AC50,[1],0.259 µM (active)
COc1ccc(Cc2nnc(SCC(=O)Nc3ccc(N4CCOCC4)cc3)o2)cc1,EC50,[2],> 260 µM (inactive)
N#Cc1cccc(NC(=O)N2CCCC3(CCN(C(=O)Oc4ccccc4)CC3)C2)c1,AC50,Cytochrome P450 2C19; read-out: AC50,25.1 µM (inconclusive)
same,AC50,Cytochrome P450 3A4,12.6 µM (inconclusive)
same,AC50,Cytochrome P450 1A2,15.8 µM (inconclusive)
same,AC50,Cytochrome P450 2C9,25.1 µM (inconclusive)
CCO[C@@H]1OC(C(=O)Nc2ccccc2)=C[C@H](c2csc3ccccc23)[C@H]1CCCO,CC50,[3],22.4 µM (active)
COc1cccc(NP(=O)(Oc2ccc(Cl)cc2)Oc2ccc(Cl)cc2)c1,EC50,Streptococcus,11.2 µM (active)
same,EC50,[4],6.17 µM (active)
same,EC50,Streptokinase A,4.68 µM (active)
same,AC50,[1],3.11 µM (active)
COc1ccc(NC(=O)C(c2ccc(OC)cc2)N(C)C(=O)CNC(C)=O)cc1 (stereo unspecified),AC50,Cytochrome P450 2C19,inconclusive
COc1cc(-n2ccnc2SC)c(Cl)cc1Cl,AC50,Cytochrome P450 2C19; read-out: AC50,7.08 µM (inconclusive)
same,AC50,Cytochrome P450 1A2,15.8 µM (inconclusive)
same,AC50,Cytochrome P450 2C9,39.8 µM (inconclusive)
C=CCc1ccc(OCC(O)CO)c(OC)c1 (stereo unspecified),EC50,[2],> 260 µM (inactive)
Cc1ccccc1NC(S)=NN1CCN(C)CC1,AC50,Cytochrome P450 2C19; read-out: AC50,25.1 µM (inconclusive)
CN(/C(=N\S(=O)(=O)c1ccccc1)c1ccccc1)c1ccc(O)cc1,EC50,[2],> 260 µM (inactive)
COc1ccccc1/C=C/C=N/n1c(S)nnc1-c1[nH]nc2c1CCC2,AC50,[1],13.7 µM (active)
COC(=O)C1C(=O)C2=C(CC1C)N=C(C)/C(=C(/O)OCc1ccc(OC)cc1)C2c1ccc(C)o1 (stereo unspecified),EC50,[2],> 260 µM (inactive)
O=C(O)c1cc(O)c2c(Cl)cc(Cl)cc2n1,AC50,Cytochrome P450 2C19,inconclusive
same,AC50,Cytochrome P450 1A2,39.8 µM (inconclusive)
COc1cc(NC(=O)c2cc([N+](=O)[O-])ccc2NC(=O)CNC2CCCCC2C)cc(OC)c1 (stereo unspecified),EC50,[2],> 260 µM (inactive)

# Source: ChEMBL document CHEMBL1201862, “PubChem BioAssay data set” (2004)
